Laboratory results as given in US9724362B2, “Pharmaceutical compositions comprising nanoparticles and a resuspending material” (Bend Research, Inc., priority 2007, dated 2017).
Values after ≈ are worked out from the molar mass of the structure shown. Like-named read-outs stand apart in the source and are kept apart here. One block for each molecule: values may come before it.

How the values were obtained:
[1] = Drug solubility; type: physicochemical

solubility ([1]; MFD solution, read-out: solubility in MFD solution): ~40 µg/mL (≈ 105 µM)
Molecule: Cc1ccc(-c2cc(C(F)(F)F)nn2-c2ccc(S(N)(=O)=O)cc2)cc1 [Drug 1, 4-[5-(4-methylphenyl)-3-(trifluoromethyl)-1H-pyrazol-1-yl]benzenesulfonamide]

solubility ([1]; water, read-out: solubility in water): < 0.1 µg/mL
Molecule: CCOC(=O)N1c2ccc(C(F)(F)F)cc2[C@@H](N(Cc2cc(C(F)(F)F)cc(C(F)(F)F)c2)C(=O)OC)C[C@H]1CC [Drug 2, [2R,4S]4-[(3,5-bis-trifluoromethyl-benzyl)-methoxycarbonyl-amino]-2-ethyl-6-trifluoromethyl-3,4-dihydro-2H-quinoline-1-carboxylic acid ethyl ester]

amount of polymer soluble at pH 6.5: less than 0.001 mg/mL
Molecule: Ethylcellulose
